Tested on: trephine defect (bony healing)
Assay: Bony healing of trephine defect after systemic treatment
Assay type: in vivo, mice
Details: systemic administration

c1cc(CN2CCCNCCNCCCNCC2)ccc1CN1CCCNCCNCCCNCC1 [AMD3100]
bony ingrowth / bony regeneration: 59.7%

CC[C@H](C)[C@H](NC(=O)[C@H](CCC(=O)O)NC(=O)[C@H](CO)NC(=O)[C@@H](NC(=O)[C@@H](N)CO)C(C)C)C(=O)N[C@@H](CCC(N)=O)C(=O)N[C@@H](CC(C)C)C(=O)N[C@@H](CCSC)C(=O)N[C@@H](Cc1cnc[nH]1)C(=O)N[C@@H](CC(N)=O)C(=O)N[C@@H](CC(C)C)C(=O)NCC(=O)N[C@@H](CCCCN)C(=O)N[C@@H](Cc1cnc[nH]1)C(=O)N[C@@H](CC(C)C)C(=O)N[C@@H](CC(N)=O)C(=O)N[C@@H](CO)C(=O)N[C@@H](CCSC)C(=O)N[C@@H](CCC(=O)O)C(=O)N[C@@H](CCCN=C(N)N)C(=O)N[C@H](C(=O)N[C@@H](CCC(=O)O)C(=O)N[C@@H](Cc1c[nH]c2ccccc12)C(=O)N[C@@H](CC(C)C)C(=O)N[C@@H](CCCN=C(N)N)C(=O)N[C@@H](CCCCN)C(=O)N[C@@H](CCCCN)C(=O)N[C@@H](CC(C)C)C(=O)N[C@@H](CCC(N)=O)C(=O)N[C@@H](CC(=O)O)C(=O)N[C@H](C(=O)N[C@@H](Cc1cnc[nH]1)C(=O)N[C@@H](CC(N)=O)C(=O)N[C@@H](Cc1ccccc1)C(=O)O)C(C)C)C(C)C [PTH]
bony ingrowth / bony regeneration: 56%

Source: patent US20150044296A1, “COMBINATION THERAPY TO IMPROVE JOINT, TENDON, AND LIGAMENT HEALING” (priority 2012, published 2015)
